Assay results taken from ChEMBL document CHEMBL1151597, “THE ROLE OF ARGININE IN THE BINDING OF LTD4 ANTAGONISTS TO cysLT1 RECEPTORS OF GUINEA PIG LUNG” (Bioorg Med Chem Lett, 1997).

Target: T1, Cysteinyl leukotriene receptor 1 (Cavia porcellus, UniProt Q2NNR5)
T1 sequence (Q2NNR5 whole entry): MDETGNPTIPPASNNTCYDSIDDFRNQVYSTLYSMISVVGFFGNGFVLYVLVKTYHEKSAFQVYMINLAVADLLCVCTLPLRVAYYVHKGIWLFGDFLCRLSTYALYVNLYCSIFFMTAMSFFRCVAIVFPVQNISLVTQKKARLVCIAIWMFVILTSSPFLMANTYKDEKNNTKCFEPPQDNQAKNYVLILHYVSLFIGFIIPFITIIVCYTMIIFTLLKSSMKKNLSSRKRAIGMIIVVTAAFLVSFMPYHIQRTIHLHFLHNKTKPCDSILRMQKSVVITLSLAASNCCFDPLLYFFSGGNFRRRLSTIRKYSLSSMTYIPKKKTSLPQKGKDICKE
Test: Dissociation constant for CysLT1 receptor was determined by the displacement of [3H]LTD4 from guinea pig lung membranes
Format: tissue-based, Membrane

Compound: COc1cc(C(=O)NS(=O)(=O)c2ccccc2)ccc1Cn1ncc2ccc(NC(=O)OC3CCCC3)cc21 [ICI-198615]
- Kd: 0.0000301 M l-1
